According to patent publication US7368421B2, “Use of dipeptidyl peptidase IV inhibitors in the treatment of multiple sclerosis” (Probiodrug AG, priority 2001, dated 2008):
Entries after “also recorded” stand apart in the source; their conditions may differ. Structures can show the parent of a compound that is named as a salt. Marks after values point to notes of the source that are not given here. Each block holds one molecule with its values, some of them ahead of it. Square brackets hold non-standard residues; d marks the D form. Peptide text beside a SMILES is read from it. pY = N[C@@H](Cc1ccc(OP(=O)(O)O)cc1)C(=O)O

How the values were obtained:
plasma DP IV activity = molecular target: T1, plasma DP IV activity (Rattus norvegicus, UniProt P14740); assay: DP IV inhibiting activity after intravasal and oral administration to Wistar rats; assay type: in vivo; conditions: 100 mg/kg; for in vivo DP IV-inhibition at tmax, i.v.: intra-vasal (intra-arterial); for in vivo DP IV-inhibition at tmax, p.o.: oral
T1 construct: from tissue; host or cells: plasma of Wistar rats
Description: Male Wistar rats (Shoe: Wist(Sho)) with a body weight ranging between 250 and 350 g were purchased from Tierzucht Schönwalde (Schönwalde, Germany).
Animals were single-caged under conventional conditions with controlled temperature (22±2° C.) on a 12/12 hours light/dark cycle (light on at 06:00 AM). Standard pelleted chow (ssniff® Soest, Germany) and tap water acidified with HCl were allowed ad libitum.
After ≧one week of adaptation at the housing conditions, catheters were implanted into the carotid artery of Wistar rats under general anaesthesia (i.p. injection of 0.25 ml/kg b.w. Rompun® [2%], BayerVital, Germany and 0.5 ml/kg b.w. Ketamin 10, Atarost GmbH & Co., Twistringen, Germany). The animals were allowed to recover for one week. The catheters were flushed with heparin-saline (100 IU/ml) three times per week. In case of catheter dysfunction, a second catheter was inserted into the contra-lateral carotid artery of the respective rat. After one week of recovery from surgery, this animal was reintegrated into the study. In case of dysfunction of the second catheter, the animal was withdrawn from the study. A new animal was recruited and the experiments were continued in the planned sequence, beginning at least 7 days after catheter implantation.
After overnight fasting, 100 μl samples of heparinised arterial blood were collected at −30, −5, and 0 min. […] In the case of oral administration, an additional volume of 1 ml saline was injected into the arterial catheter. In the case of intra-arterial administration, the catheter was immediately flushed with 30 μl saline and an additional 1 ml of saline was given orally via the feeding tube.
All blood samples were collected into ice cooled Eppendorf tubes (Eppendorf-Netheler-Hinz, Hamburg, Germany) filled with 10 μl 1 M sodium citrate buffer (pH 3.0) for plasma DP IV activity measurement. Eppendorf tubes were centrifuged immediately (12000 rpm for 2 min, Hettich Zentrifuge EBA 12, Tuttlingen; Germany): The plasma fractions were stored on ice until analysis or were frozen at −20° C. until analysis. All plasma samples were labelled with the following data: • Code number • Animal Number • Date of sampling • Time of sampling Analytical Methods
The assay mixture for determination of plasma DP IV activity consisted of 80 μl reagent and 20 μl plasma sample. […] The DP IV activity was expressed in mU/ml.
All parameters were analysed in a descriptive manner including mean and SD.

[1] = system: experimental autoimmune encephalomyelitis (EAE); assay: EAE experiment 2: i.p. treatment day 5-15, male Lewis rats; assay type: in vivo; design: key to Average score / Maximal score: 0.5 = partial tail tone loss … 4 = quadriplegia, 5 = death; Onset of disease (1st day of score > 1): unit not given here; conditions: for Average score / Maximal score / Onset of disease (1st day of score > 1) / Sum of scores: days 5-15 p.i.
Description: (§1) For the second experiment, male inbred Lewis rats (n=50) with a mean body weight of 230±12 g, were obtained from Charles River (Bad Sulzfeld, Germany). Animals were randomly assigned to the different experimental conditions. Rats were housed four per cage under a 12:12 h light: dark cycle (lights off at 18:00 h) and at constant temperature (24° C.) in a specific pathogen free air-conditioned colony room with food (Altromin lab chow pellets) and tap water available ad lib. The animals underwent routine cage maintenance once a week.
(§2) Guinea pig MBP (50 μg/rat) was emulsified in Complete Freund's adjuvant (CFA) containing heat-killed Mycobacterium tuberculosis (H37Ra; 225 μg/rat) and injected s.c. at the base of the tail in a total volume of 100 μl (12). CFA (Sigma) and heat-killed Mycobacterium tuberculosis (H37Ra) were purchased from Life Technologies, Inc. (Rockville, Md.). Clinical disease was scored on the following scale: 0.5: partial loss of tail tone; 1.0: complete tail atony; 2.0: hind limb weakness; 2.5: hind limb paralysis of one leg; 3.0: hind limb paralysis of both legs; 3.5: limb paralysis of three legs; 4.0: quadriplegia and moribund status; 5.0: death due to EAE. Experiments were terminated on day 21 post immunization (p.i.).
The incidence of adjuvant-induced arthritis was remarkably low (n=0 in the 2nd experiment) using the base of the tail as an immunization site. In the second experiment no signs of arthritis were found. […] This time, these animals remained in the analysis, because this finding is probably due to the treatment. In this experiment a phenomenon called “disease dissociation” was observed. In several animals there was a clear tonus of the tail associated with a clear weakness of the hind limbs. The animals were scored maximal, i.e. 2.
(§3) Comparison over time between the clinical course of EAE of the different treatment conditions was conducted using a two factorial analysis of variance (ANOVA) for repeated measures. Sums of clinical scores of EAE, onset and peak of disease were calculated on the basis of the clinical scores per day and analyzed using a one factorial ANOVA and post hoc Fisher's PLSD tests, if appropriate. All data are presented as means±SEM.

[2] = system: experimental autoimmune encephalomyelitis (EAE); assay: EAE experiment 1: i.p. treatment day 1-15, female Lewis rats; assay type: in vivo
Description: as §1, with “first experiment female” for “second experiment, male”, “190±6” for “230±12”, “week. All research and animal care procedures were approved by the government of Lower Saxony in Hannover, Germany, and performed in compliance with international animal welfare standards.” for “week.”
as §2, with “15” for “21”, “when most of the animals were about 48 h after maximal clinical score. The incidence of adjuvant-induced arthritis was remarkably low (n=0 in the 1st experiment) using the base of the tail as an immunization site. […]” for “(p.i.).”
as §3, with “All data are presented as means±SEM.” left out

EAE = conditions: chronic treatment, female Lewis rats; cited from earlier work
porcine DP II = molecular target: T2, porcine DP II (Sus scrofa, UniProt A0A5G2QK18); assay: Inhibition of DP IV-like enzymes, dipeptidyl peptidase II; assay type: biochemical
T2 construct: The enzyme used was purified from porcine kidney; from tissue; host or cells: porcine kidney
Description: DP II (3.4.14.2) releases N-terminal dipeptides from oligopeptides if the N-terminus is not protonated (McDonald, J. K., Ellis, S. & Reilly, T. J., 1966, J. Biol. Chem., 241, 1494-1501). Pro and Ala in P1-position are preferred residues. The enzyme activity is described as DP IV-like activity, but DP II has an acidic pH-optimum. The enzyme used was purified from porcine kidney.
100 μl glutaminylpyrrolidine or glutaminylthazolidine in an concentration range of 1*10^−4 M-5*10^−8M were admixed with 100 μl μl buffer solution (40 mM HEPES, pH7.6, 0.015% Brij, 1 mM DTT), 50 μl lysylalanylaminomethylcoumarine solution (5 mM) and 20 μl porcine DP II (250fold diluted in buffer solution). Fluorescence measurement was performed at 30° C. and λexiatation=380 nm, λemission=465 nm for 25 min using a plate reader (HTS7000plus, Applied Biosystems, Weiterstadt, Germany).

[3] = molecular target: T3, Dipeptidyl Peptidase I (DP I, Cathepsin C) (Rattus norvegicus, UniProt P80067); assay: Cross reacting enzymes: dipeptidyl peptidase I; assay type: biochemical; conditions: concentration range 1*10^−5M-1*10^−7M
T3 construct: purchased Qiagen GmbH, Hilden, Germany
T3 sequence (P80067 25-462): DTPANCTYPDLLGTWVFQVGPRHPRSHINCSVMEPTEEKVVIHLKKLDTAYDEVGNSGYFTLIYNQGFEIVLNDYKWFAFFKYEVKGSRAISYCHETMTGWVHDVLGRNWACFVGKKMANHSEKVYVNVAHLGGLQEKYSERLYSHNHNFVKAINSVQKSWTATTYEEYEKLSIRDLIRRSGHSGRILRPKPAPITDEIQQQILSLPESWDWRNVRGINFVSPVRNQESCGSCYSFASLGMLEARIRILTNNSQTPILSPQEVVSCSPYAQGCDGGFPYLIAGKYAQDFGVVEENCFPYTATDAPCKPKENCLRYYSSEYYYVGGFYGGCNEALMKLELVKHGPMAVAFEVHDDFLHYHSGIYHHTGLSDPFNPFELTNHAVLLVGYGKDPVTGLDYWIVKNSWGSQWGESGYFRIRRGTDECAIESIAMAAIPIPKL
Description: DP I or cathepsin C is a lysosomal cysteine protease which cleaves off dipeptides from the N-terminus of their substrates (Gutman, H. R. & Fruton, J. S., 1948, J. Biol. Chem., 174, 851-858). It is classified as a cysteine protease. The enzyme used was purchased from Qiagen (Qiagen GmbH, Hilden, Germany). In order to get a fully active enzyme, the enzyme was diluted 1000 fold in MES buffer pH5,6 (40 mM MES, 4 mM DTT, 4 mM KCl, 2 mM EDTA, 0.015% Brij) and pre-incubated for 30 min at 30° C.
50 μl glutaminylpyrrolidine or glutaminylthazolidine in a concentration range of 1*10^−5M-1*10^−7M were admixed with 110 μl buffer-enzyme-mixture. The assay mixture was pre-incubated at 30° C. for 15 min. After pre-incubation, 100 μl, histidylseryl-β-nitroaniline (2*10^−5M) was added and measurement of yellow color development due to β-nitroaniline release was performed at 30° C. and […] for 10 min., using a plate reader (HTS7000 plus, Applied Biosystems, Weiterstadt, Germany).
The IC 50-values were calculated using Graphit 4.0.15 (Erithacus Software, Ltd., UK).

purified porcine DP IV = purified porcine DP IV (Sus scrofa, UniProt P22411); assay: Determination of IC50 values, DP IV; assay type: biochemical; conditions: Gly-Pro-pNA 0.4 mM, HEPES pH 7.6, 30° C.
Description: 100 μl inhibitor stock solution were mixed with 100 μl buffer (HEPES pH7.6) and 50 μl substrate (Gly-Pro-pNA, final concentration 0.4 mM) and preincubated at 30° C. Reaction was started by addition of 20 μl purified porcine DP IV. Formation of the product pNA was measured at 405 nm over 10 min using the HTS 7000Plus plate reader (Perkin Elmer) and slopes were calculated. The final inhibitor concentrations ranged between 1 mM and 30 nM. For calculation of IC50 GraFit 4.0.13 (Erithacus Software) was used.

T1 sequence (P14740 37-767 limits assumed): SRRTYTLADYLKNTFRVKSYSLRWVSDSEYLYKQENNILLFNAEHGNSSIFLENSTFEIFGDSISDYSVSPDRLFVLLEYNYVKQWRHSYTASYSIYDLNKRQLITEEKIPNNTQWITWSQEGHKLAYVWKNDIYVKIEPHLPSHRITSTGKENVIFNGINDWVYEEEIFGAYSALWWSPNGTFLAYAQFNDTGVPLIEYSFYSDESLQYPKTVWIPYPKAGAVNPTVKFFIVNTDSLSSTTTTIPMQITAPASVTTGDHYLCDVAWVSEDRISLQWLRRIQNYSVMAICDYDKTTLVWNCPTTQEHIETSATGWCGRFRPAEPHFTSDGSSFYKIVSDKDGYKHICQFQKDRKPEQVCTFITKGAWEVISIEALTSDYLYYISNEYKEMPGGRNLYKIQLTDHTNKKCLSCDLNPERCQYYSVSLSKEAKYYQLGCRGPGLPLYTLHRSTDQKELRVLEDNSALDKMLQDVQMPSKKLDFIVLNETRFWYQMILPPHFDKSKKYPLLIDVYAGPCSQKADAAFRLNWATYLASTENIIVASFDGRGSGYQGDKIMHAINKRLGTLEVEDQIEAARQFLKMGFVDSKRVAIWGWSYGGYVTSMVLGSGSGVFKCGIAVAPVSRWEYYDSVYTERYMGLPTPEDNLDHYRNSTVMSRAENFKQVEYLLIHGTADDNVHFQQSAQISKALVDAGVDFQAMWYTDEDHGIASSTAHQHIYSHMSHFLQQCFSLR
Sequence of purified porcine DP IV (P22411 whole entry): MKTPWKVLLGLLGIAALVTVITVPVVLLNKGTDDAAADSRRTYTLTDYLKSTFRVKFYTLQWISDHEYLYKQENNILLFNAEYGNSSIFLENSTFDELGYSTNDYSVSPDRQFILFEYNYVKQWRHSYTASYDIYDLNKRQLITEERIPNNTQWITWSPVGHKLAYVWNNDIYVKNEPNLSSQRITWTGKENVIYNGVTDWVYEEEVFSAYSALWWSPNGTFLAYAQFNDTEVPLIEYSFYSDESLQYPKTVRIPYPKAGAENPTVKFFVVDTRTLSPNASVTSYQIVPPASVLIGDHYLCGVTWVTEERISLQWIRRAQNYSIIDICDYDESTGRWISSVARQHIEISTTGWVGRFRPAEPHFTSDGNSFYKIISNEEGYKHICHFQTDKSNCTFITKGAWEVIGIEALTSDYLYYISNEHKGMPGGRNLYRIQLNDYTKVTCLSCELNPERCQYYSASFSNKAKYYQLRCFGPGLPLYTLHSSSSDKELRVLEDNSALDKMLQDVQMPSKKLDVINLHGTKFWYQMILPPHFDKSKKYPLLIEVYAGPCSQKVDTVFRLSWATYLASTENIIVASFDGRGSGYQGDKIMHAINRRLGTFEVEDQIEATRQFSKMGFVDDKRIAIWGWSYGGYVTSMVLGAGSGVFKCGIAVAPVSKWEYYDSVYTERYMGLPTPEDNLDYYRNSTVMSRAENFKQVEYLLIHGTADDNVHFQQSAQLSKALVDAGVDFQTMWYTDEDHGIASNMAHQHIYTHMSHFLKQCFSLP
T2 sequence (A0A5G2QK18 28-502): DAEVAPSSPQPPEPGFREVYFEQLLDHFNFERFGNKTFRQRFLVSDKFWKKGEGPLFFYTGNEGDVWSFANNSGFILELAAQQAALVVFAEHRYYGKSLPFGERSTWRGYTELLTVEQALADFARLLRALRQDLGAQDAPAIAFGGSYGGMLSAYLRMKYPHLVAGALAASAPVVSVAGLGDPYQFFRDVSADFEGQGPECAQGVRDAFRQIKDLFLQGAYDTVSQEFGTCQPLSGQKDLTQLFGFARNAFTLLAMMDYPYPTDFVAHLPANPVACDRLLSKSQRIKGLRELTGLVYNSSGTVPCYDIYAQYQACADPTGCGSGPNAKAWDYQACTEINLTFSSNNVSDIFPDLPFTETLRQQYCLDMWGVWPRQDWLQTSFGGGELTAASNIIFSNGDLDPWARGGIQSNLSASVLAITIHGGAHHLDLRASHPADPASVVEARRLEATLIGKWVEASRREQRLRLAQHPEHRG

type of inhibition of porcine DP II (porcine DP II): non-competitive type inhibitors | inhibition of DP I enzyme activity [3]: no inhibition
Structure (SMILES): NC(=O)CCC(N)C(=O)N1CCCC1 (stereo not shown) [Gln-Pyrr, glutaminyl pyrrolidine]

IC50 (purified porcine DP IV): 5.27 µM
Structure (SMILES): NC(=O)CCC(N)C(=O)N1CCSC1 (stereo not shown) [Gln-Thia, glutaminyl thiazolidine]

Continued, molecule first:

Structure (SMILES): Br.CC(=O)OCC(=O)[C@@H]1CCCN1C(=O)[C@@H](NC(=O)[C@H](C)N)C(C)C [Ala-Val-Pro-Acyloxymethylketone, H-Ala-Val-Pro-CH2O—C(O)CH3*HBr]
in vivo DP IV-inhibition at tmax, i.v. (plasma DP IV activity): 89% | in vivo DP IV-inhibition at tmax, p.o. (plasma DP IV activity): 86%

Structure (SMILES): CC[C@H](C)[C@H](NC(=O)[C@@H]1CCCN1C(=O)[C@@H](N)Cc1ccc(OP(=O)(O)O)cc1)C(=O)O [Tyr(P)-Pro-Ile] (H-[pY]-Pro-Ile-OH; N-terminus assumed)
in vivo DP IV-inhibition at tmax, p.o. (plasma DP IV activity): no inhibition

Structure (SMILES): CC[C@H](C)[C@H](N)C(=O)N1CCSC1 [isoleucyl thiazolidine fumarate]
effect on clinical scores in the second peak (classical acute EAE), days 10-13 ([1]; 1 mg dose i.p.): aggravate the clinical scores | Average score ([1]; 1 mg/kg i.p. daily): 0.96* | Maximal score ([1]; 1 mg/kg i.p. daily): 2.8 | Onset of disease (1st day of score > 1) ([1]; 1 mg/kg i.p. daily): 10.3* | Sum of scores ([1]; 1 mg/kg i.p. daily): 14.2* | effect on disease activity after initiation of treatment, days 6-9 ([1]; 3 mg and 10 mg dosages i.p.): induced a significant first peak of disease activity | Average score ([1]; 3 mg/kg i.p. daily): 0.8 | Maximal score ([1]; 3 mg/kg i.p. daily): 3.0 | Onset of disease (1st day of score > 1) ([1]; 3 mg/kg i.p. daily): 12.0 | Sum of scores ([1]; 3 mg/kg i.p. daily): 12.0 | Average score ([1]; 10 mg/kg i.p. daily): 0.72 | Maximal score ([1]; 10 mg/kg i.p. daily): 2.1 | Onset of disease (1st day of score > 1) ([1]; 10 mg/kg i.p. daily): 12.1 | Sum of scores ([1]; 10 mg/kg i.p. daily): 10.8 | Average score ([1]; 30 mg/kg i.p. daily): 0.37** | Maximal score ([1]; 30 mg/kg i.p. daily): 2.0* | Onset of disease (1st day of score > 1) ([1]; 30 mg/kg i.p. daily): 14.0*** | Sum of scores ([1]; 30 mg/kg i.p. daily): 5.6** | effect on clinical scores in the second peak (classical acute EAE), days 10-13 ([1]; 30 mg/kg i.p., fumarate): clearly improved the clinical course; also recorded: significant delaying and ameliorating effects | effect on clinical score of EAE, days 11 and 12 p.i. ([2]; 1 mg dosage i.p. daily from day 1, female Lewis rats, fumarate): significant disease-aggravating effect; also recorded: disease-aggravating effects | effect on clinical score of EAE, day 15 p.i. ([2]; 10 mg dose i.p. daily from day 1, female Lewis rats, fumarate): significantly reduced clinical score | shortening of the latency until onset of disease ([2]; 10 mg/kg i.p. daily from day 1, female Lewis rats): about 1 day

Structure (SMILES): CN(C)CCCN1c2ccccc2CCc2ccccc21 [Imipramine]
severity of acute MBP-induced EAE (EAE): reduce the severity

Structure (SMILES): Br.CC(C)[C@H](NC(=O)[C@H](C)N)C(=O)N1CCC[C@H]1C(=O)COC(=O)c1ccccc1 [Ala-Val-Pro-Benzoyl-methylketone, H-Ala-Val-Pro-CH2O—C(O)Ph*HBr]
in vivo DP IV-inhibition at tmax, i.v. (plasma DP IV activity): 97% | in vivo DP IV-inhibition at tmax, p.o. (plasma DP IV activity): 76%
